Data published in article PMC9817970 (Cancers, 2022).

Tests used:
GIST-T1 cells [1] = assay: Apoptosis analysis (annexinV/PI flow cytometry); format: cell-based, human; settings: GIST-T1, 0.05 μM
Method: (§1) After compound treatment in GIST-T1 and HMC1.2 cells for 24 h, cells were fixed with 70% cold ethanol. Then, cells were incubated with 50 μg propidium iodide/mL solution (PI, Sigma) containing 1 mg RNase A/mL for 30 min in the dark. Cell cycle arrest was analyzed (BD Accuri), and data were processed using BD Accuri^TM C6 software. For apoptosis analysis, compound treatment for 24–48 h, cells were harvested and stained with annexinV and PI solution. 1 × 10^5 cells were analyzed using flow cytometric analysis.

HMC1.2 cells = assay: Apoptosis analysis (annexinV/PI flow cytometry); format: cell-based, human; settings: HMC1.2, 1 μM, 48 h
Method: as §1

parental Ba/F3 cells = assay: Anti-proliferative activity on Ba/F3 cells; format: cell-based; settings: Mus musculus, BaF3
Method: GIST-T1 (Cosmobio, Tokyo, Japan, # PMC-GIST01C-COS) cells were cultured in DMEM (Welgene, # LM001-05) and HMC1.2 (Merck, Darmstadt, Germany, # SCC062) cells were cultured in IMDM (Welgene, # LM004-01). Parental Ba/F3 (DSMZ, Braunschweig, Germany, # ACC300) cells were cultured in RPMI (Welgene, # LM011-51) with 10 ng IL-3/mL (Enzo, # ALX-201-821). The culture media was supplemented with 10% fetal bovine serum and 1% penicillin/streptomycin solution. The cells were maintained in a humidified atmosphere containing 5% CO2 at 37 °C.
Cells (GIST-T1: 5.0 × 10^3; HMC1.2: 1 × 10^4) were seeded in 96-well plates. Each compound was treated in each well at 10 dose points of 3-fold serial dilution. After treatment with each compound for 72 h, CellTiter-Glo solution (Promega, # G7572) was added to each well. Anti-proliferation activity was measured the luminescence using a 96-well plate reader (EnVision 2013).

GIST-T1 cells [2] = assay: Invasion assay (Transwell); format: cell-based, human; settings: GIST-T1, 0.05 μM, 48 h
Method: The cell invasion assay was performed using Transwell membrane filter inserts (Corning Costar Corp., Corning, NY, USA). GIST-T1 cells were then suspended in serum-free DMEM at 2 × 10^6 cells and seeded in the upper chambers. In the lower chambers, the DMEM medium containing 10% FBS was added. After 48 h, the cells migrating down the membrane were stained with crystal violet.

c-KIT D816V Ba/F3 cells = assay: Cell cycle arrest analysis (PI flow cytometry); format: cell-based; settings: c-KIT D816V Ba/F3, 0.5 μM, 24 h
c-KIT = c-KIT (Homo sapiens, UniProt P10721); assay: Radiometric biochemical kinase assay on c-KIT; design: purchased Reaction Biology Corp. (contract assay service)
c-KIT, sequence (P10721 26-976): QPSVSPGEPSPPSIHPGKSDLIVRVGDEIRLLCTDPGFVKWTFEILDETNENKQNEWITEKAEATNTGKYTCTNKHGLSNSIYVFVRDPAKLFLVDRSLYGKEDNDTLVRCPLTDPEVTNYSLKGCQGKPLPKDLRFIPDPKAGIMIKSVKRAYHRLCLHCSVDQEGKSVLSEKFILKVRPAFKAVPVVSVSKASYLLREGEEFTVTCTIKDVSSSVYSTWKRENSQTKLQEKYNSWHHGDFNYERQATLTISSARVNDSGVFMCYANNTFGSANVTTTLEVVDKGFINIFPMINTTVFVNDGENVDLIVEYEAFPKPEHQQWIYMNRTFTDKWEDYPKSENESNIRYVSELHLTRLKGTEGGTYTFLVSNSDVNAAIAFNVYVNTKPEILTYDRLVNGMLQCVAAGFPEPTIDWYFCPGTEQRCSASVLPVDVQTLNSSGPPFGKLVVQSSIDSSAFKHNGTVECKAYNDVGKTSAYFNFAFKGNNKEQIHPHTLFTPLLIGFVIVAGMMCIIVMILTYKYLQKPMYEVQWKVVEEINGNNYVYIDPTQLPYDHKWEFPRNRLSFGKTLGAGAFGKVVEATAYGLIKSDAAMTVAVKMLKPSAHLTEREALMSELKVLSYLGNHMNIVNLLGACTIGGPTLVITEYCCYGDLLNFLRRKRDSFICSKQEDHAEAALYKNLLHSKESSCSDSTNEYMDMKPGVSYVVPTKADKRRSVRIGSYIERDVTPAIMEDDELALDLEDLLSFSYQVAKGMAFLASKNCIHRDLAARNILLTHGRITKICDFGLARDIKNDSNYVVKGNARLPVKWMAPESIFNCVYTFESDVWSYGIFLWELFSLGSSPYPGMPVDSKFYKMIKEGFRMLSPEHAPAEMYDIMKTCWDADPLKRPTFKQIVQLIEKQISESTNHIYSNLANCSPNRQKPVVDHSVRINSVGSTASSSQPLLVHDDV
Method: Biochemical kinase assays on c-KIT protein kinase were performed at Reaction Biology Corp. (San Diego, CA, USA). […] The kinase assay followed the manufacturer’s instruction. IC50 values were calculated by GraphPad prism 8.0 software (GraphPad Software, San Diego, CA, USA).
Enzymatic inhibitory activities of all synthesized thiazolo[5,4-b]pyridine derivatives against c-KIT were measured using radiometric biochemical kinase assays (Table 1). We first explored the R1 group of the thiazolo[5,4-b]pyridine scaffold.

VRK1 = molecular target: T1, VRK1 (Homo sapiens, UniProt Q99986); assay: Kinase panel profiling; format: biochemical; settings: 10 μM ATP
T1 construct: purchased Reaction Biology Corp
T1 sequence (Q99986 whole entry): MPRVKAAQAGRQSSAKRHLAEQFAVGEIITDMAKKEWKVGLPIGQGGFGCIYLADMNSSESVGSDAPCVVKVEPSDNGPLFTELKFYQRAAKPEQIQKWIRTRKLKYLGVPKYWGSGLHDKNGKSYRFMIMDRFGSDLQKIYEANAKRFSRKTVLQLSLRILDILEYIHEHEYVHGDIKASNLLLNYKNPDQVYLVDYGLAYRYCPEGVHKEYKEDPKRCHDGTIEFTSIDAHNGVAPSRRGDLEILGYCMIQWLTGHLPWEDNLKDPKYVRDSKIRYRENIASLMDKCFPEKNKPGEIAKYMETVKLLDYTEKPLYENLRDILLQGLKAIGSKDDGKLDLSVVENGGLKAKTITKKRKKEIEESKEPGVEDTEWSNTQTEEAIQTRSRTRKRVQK
Method: (§2) Kinase panel profiling was conducted by Reaction Biology Corp. (San Diego, CA, USA). A single dose (1.0 μM) of 6r was tested against 371 recombinant human kinases in the presence of 10 μM ATP.

DLK/MAP3K12 = molecular target: T2, DLK/MAP3K12 (Homo sapiens, UniProt Q12852); assay: Kinase panel profiling; format: biochemical; settings: 10 μM ATP
T2 construct: purchased Reaction Biology Corp
Method: as §2

TGFBR2 = molecular target: T3, TGFBR2 (Homo sapiens, UniProt P37173); assay: Kinase panel profiling; format: biochemical; settings: 10 μM ATP
T3 construct: purchased Reaction Biology Corp
T3 sequence (P37173 23-567): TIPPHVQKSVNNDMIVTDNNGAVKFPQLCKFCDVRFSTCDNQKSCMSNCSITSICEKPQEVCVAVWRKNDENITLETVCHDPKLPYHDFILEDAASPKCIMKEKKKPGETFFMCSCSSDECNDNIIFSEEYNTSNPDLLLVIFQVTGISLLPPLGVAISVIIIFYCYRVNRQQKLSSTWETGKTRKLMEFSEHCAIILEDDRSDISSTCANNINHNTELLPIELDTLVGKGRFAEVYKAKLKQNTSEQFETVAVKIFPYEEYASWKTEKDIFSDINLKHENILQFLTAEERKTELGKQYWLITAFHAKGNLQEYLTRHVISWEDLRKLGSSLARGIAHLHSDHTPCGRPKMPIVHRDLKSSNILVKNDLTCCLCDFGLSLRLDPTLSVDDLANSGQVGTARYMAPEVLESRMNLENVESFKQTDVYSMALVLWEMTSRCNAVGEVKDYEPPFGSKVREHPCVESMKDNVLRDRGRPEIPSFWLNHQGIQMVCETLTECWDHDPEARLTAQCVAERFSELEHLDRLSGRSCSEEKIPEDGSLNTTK
Method: as §2

WNK1 = molecular target: T4, WNK1 (Homo sapiens, UniProt Q9H4A3); assay: Kinase panel profiling; format: biochemical; settings: 10 μM ATP
T4 construct: purchased Reaction Biology Corp
Method: as §2

MLK1/MAP3K9 = molecular target: T5, MLK1/MAP3K9 (Homo sapiens, UniProt P80192); assay: Kinase panel profiling; format: biochemical; settings: 10 μM ATP
T5 construct: purchased Reaction Biology Corp
Method: as §2

MKK4 = molecular target: T6, MKK4 (Homo sapiens, UniProt P45985); assay: Kinase panel profiling; format: biochemical; settings: 10 μM ATP
T6 construct: purchased Reaction Biology Corp
Method: as §2

RSK2 = molecular target: T7, RSK2 (Homo sapiens, UniProt P51812); assay: Kinase panel profiling; format: biochemical; settings: 10 μM ATP
T7 construct: purchased Reaction Biology Corp
T7 sequence (P51812 whole entry): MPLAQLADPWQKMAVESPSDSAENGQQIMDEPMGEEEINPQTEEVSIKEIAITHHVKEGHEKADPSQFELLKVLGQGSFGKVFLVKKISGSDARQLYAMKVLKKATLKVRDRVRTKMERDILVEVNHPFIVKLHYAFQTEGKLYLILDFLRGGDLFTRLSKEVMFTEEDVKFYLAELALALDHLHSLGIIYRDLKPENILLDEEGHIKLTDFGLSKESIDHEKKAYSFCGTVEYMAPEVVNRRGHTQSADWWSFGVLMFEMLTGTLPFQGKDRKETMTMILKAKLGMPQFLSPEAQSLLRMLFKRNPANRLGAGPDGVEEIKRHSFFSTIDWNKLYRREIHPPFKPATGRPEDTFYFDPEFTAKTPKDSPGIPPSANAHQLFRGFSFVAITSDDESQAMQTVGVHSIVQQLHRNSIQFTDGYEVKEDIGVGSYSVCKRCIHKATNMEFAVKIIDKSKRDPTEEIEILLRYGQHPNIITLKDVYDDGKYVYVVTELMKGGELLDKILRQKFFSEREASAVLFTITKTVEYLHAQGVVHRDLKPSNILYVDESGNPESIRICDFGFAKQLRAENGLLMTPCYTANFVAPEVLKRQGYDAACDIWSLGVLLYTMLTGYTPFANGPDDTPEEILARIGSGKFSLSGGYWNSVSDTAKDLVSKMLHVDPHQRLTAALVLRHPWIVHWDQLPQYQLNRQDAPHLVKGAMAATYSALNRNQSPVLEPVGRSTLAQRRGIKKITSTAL
Method: as §2

TBK1 = molecular target: T8, TBK1 (Homo sapiens, UniProt Q9UHD2); assay: Kinase panel profiling; format: biochemical; settings: 10 μM ATP
T8 construct: purchased Reaction Biology Corp
Method: as §2

ARAF = molecular target: T9, ARAF (Homo sapiens, UniProt P10398); assay: Kinase panel profiling; format: biochemical; settings: 10 μM ATP
T9 construct: purchased Reaction Biology Corp
Method: as §2

GRK7 = molecular target: T10, GRK7 (Homo sapiens, UniProt Q8WTQ7); assay: Kinase panel profiling; format: biochemical; settings: 10 μM ATP
T10 construct: purchased Reaction Biology Corp
Method: as §2

SGK3/SGKL = molecular target: T11, SGK3/SGKL (Homo sapiens, UniProt Q96BR1); assay: Kinase panel profiling; format: biochemical; settings: 10 μM ATP
T11 construct: purchased Reaction Biology Corp
Method: as §2

MEKK2 = molecular target: T12, MEKK2 (Homo sapiens, UniProt Q9Y2U5); assay: Kinase panel profiling; format: biochemical; settings: 10 μM ATP
T12 construct: purchased Reaction Biology Corp
T12 sequence (Q9Y2U5 whole entry): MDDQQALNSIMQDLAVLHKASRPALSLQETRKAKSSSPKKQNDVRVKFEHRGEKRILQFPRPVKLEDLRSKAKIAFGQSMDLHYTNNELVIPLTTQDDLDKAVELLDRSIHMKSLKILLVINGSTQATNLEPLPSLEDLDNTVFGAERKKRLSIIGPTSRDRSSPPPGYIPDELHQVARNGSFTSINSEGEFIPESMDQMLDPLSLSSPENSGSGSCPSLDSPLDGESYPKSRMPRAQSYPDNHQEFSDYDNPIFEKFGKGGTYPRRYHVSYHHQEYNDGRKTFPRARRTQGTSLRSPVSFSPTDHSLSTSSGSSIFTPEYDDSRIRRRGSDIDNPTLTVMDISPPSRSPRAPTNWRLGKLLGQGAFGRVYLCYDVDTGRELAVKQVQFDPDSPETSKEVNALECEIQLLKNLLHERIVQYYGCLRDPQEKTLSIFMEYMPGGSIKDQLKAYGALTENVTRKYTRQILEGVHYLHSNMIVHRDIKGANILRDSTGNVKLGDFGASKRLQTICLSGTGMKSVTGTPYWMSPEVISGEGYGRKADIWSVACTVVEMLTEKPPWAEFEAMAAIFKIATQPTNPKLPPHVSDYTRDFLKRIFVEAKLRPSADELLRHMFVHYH
Method: as §2

SIK1 = molecular target: T13, SIK1 (Homo sapiens, UniProt P57059); assay: Kinase panel profiling; format: biochemical; settings: 10 μM ATP
T13 construct: purchased Reaction Biology Corp
Method: as §2

CAMKK2 = molecular target: T14, CAMKK2 (Homo sapiens, UniProt Q96RR4); assay: Kinase panel profiling; format: biochemical; settings: 10 μM ATP
T14 construct: purchased Reaction Biology Corp
T14 sequence (Q96RR4 whole entry): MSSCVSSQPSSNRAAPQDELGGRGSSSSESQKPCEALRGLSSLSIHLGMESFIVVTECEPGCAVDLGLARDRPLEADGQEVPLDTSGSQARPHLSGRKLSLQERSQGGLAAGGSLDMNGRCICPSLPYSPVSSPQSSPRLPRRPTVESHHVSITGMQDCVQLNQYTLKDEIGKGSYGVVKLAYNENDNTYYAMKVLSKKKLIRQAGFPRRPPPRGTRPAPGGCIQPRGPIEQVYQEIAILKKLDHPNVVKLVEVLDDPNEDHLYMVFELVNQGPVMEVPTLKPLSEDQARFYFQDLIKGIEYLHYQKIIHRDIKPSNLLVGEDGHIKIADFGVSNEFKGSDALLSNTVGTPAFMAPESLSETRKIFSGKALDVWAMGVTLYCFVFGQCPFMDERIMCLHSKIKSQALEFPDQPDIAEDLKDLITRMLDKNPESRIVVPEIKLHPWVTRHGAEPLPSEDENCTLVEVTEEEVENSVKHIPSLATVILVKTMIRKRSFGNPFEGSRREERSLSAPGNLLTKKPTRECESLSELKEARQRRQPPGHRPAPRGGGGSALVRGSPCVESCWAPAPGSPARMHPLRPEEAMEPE
Method: as §2

P38a/MAPK14 = molecular target: T15, P38a/MAPK14 (Homo sapiens, UniProt Q16539); assay: Kinase panel profiling; format: biochemical; settings: 10 μM ATP
T15 construct: purchased Reaction Biology Corp
T15 sequence (Q16539 whole entry): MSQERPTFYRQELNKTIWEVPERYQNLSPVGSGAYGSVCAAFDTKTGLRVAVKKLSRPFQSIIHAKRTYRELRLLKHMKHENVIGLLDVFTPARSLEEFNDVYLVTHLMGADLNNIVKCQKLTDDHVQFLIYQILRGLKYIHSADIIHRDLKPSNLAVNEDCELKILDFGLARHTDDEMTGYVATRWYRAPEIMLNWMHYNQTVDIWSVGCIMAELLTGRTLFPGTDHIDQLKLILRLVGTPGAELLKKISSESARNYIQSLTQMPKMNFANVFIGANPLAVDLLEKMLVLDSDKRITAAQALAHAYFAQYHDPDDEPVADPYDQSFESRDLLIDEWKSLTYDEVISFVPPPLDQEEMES
Method: as §2

ABL2/ARG = molecular target: T16, ABL2/ARG (Homo sapiens, UniProt P42684); assay: Kinase panel profiling; format: biochemical; settings: 10 μM ATP
T16 construct: purchased Reaction Biology Corp
Method: as §2

NLK = molecular target: T17, NLK (Homo sapiens, UniProt Q9UBE8); assay: Kinase panel profiling; format: biochemical; settings: 10 μM ATP
T17 construct: purchased Reaction Biology Corp
Method: as §2

PKCb1 = molecular target: T18, PKCb1 (Homo sapiens, UniProt P05771); assay: Kinase panel profiling; format: biochemical; settings: 10 μM ATP
T18 construct: purchased Reaction Biology Corp
T18 sequence (P05771 whole entry): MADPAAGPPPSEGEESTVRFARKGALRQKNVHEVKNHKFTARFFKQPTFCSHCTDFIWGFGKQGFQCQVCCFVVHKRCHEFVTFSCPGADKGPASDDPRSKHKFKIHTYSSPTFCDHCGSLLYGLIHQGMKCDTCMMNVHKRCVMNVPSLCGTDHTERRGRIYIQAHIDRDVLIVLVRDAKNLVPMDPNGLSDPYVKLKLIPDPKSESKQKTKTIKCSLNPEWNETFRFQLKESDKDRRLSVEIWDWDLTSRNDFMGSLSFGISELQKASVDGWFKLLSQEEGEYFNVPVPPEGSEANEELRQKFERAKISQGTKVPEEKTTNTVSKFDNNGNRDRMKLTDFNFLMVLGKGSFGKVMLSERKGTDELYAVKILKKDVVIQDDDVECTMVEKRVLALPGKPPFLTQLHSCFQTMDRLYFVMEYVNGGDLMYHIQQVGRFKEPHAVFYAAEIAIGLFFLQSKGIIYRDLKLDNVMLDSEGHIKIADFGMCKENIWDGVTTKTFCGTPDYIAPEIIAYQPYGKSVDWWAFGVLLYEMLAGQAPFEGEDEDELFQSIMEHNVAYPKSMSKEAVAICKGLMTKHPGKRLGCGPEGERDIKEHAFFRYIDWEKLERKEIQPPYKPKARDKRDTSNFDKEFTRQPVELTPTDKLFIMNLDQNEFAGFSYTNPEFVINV
Method: as §2

GIST-T1 cells [3] = assay: Migration (wound healing) assay; format: cell-based, human; settings: GIST-T1, 0.005 μM and 0.05 μM, 36 h
Method: GIST-T1 cells were seeded in 6-well plates at 2 × 10^6 cells. Next day, cells were washed with PBS and wounded in the center of each well. Then, GIST-T1 cells were washed with PBS and added to fresh DMEM.

Structure (SMILES): Cc1ccc(NC(=O)c2ccc(CN3CCN(C)CC3)c(C(F)(F)F)c2)cc1-c1cnc2sc(N)nc2c1 [6r]
- production of apoptotic cells (GIST-T1 cells [1]): remarkably induced
- production of apoptotic cells (HMC1.2 cells): remarkably induced
- GI50 (parental Ba/F3 cells): 8.06 ± 0.57 µM
- invasion capability (GIST-T1 cells [2]): significantly suppressing
- G0/G1 arrest compared with imatinib (c-KIT D816V Ba/F3 cells): more strongly
- IC50 (c-KIT; read-out: IC50 against c-KIT): 140 nM
- fold enhanced c-KIT inhibitory activity compared to 6m (c-KIT; versus 6m): 15.5 fold
- fold higher c-KIT inhibitory activity than imatinib (c-KIT; versus imatinib): 1.9 fold
- inhibition at 1 µM (VRK1): 1.6%
- inhibition at 1 µM (DLK/MAP3K12): 0%
- inhibition at 1 µM (TGFBR2): 0%
- inhibition at 1 µM (WNK1): 6.9%
- inhibition at 1 µM (MLK1/MAP3K9): 0%
- inhibition at 1 µM (MKK4): 6%
- inhibition at 1 µM (RSK2): 32.4%
- inhibition at 1 µM (TBK1): 5%
- inhibition at 1 µM (ARAF): 98.3%
- inhibition at 1 µM (GRK7): 7.5%
- inhibition at 1 µM (SGK3/SGKL): 0.8%
- inhibition at 1 µM (MEKK2): 11.1%
- inhibition at 1 µM (SIK1): 1.1%
- inhibition at 1 µM (CAMKK2): 20.5%
- inhibition at 1 µM (P38a/MAPK14): 96.5%
- inhibition at 1 µM (ABL2/ARG): 87.2%
- inhibition at 1 µM (NLK): 7.3%
- inhibition at 1 µM (PKCb1): 10.5%
- cell migration decreased compared to control (GIST-T1 cells [3]): 50–70%
